Assay results as given in PMC4822798 (Clinical Pharmacology : Advances and Applications, 2016).
Like-named read-outs stand apart in the source and are kept apart here.

Legend:
[1] = cited from earlier work
[2] = system: MRSA strains; experiment: Teicoplanin susceptibility testing; type: cell-based, methicillin-resistant Staphylococcus aureus; conditions: Mueller-Hinton agar, E-test, 16–20 hours at 37°C
[3] = system: MRSA infections; experiment: PK/PD analysis: AUC24/MIC ratio versus bacteriological response in patients; type: in vivo, patients (human); conditions: for probability of treatment success: logistic regression, 46 patients
[4] = mean population PK parameter, Japanese patients; cited from earlier work
[5] = system: MRSA infections; conditions: cited from earlier work; for AUC24 value on the third day: ref 12 (Hagihara et al)
[6] = system: MRSA isolates; conditions: all isolates, cited from earlier work

For `CN[C@H](CC(C)C)C(=O)N[C@H]1C(=O)N[C@@H](CC(N)=O)C(=O)N[C@H]2C(=O)N[C@H]3C(=O)N[C@H](C(=O)N[C@H](C(=O)O)c4cc(O)cc(O)c4-c4cc3ccc4O)[C@H](O)c3ccc(c(Cl)c3)Oc3cc2cc(c3O[C@@H]2O[C@H](CO)[C@@H](O)[C@H](O)[C@H]2O[C@H]2C[C@](C)(N)[C@H](O)[C@H](C)O2)Oc2ccc(cc2Cl)[C@H]1O` [vancomycin], the “trough concentrations needed to achieve an AUC value of ≥400” value [1] is given as 10 to 20 µg/mL and the “AUC/MIC ratio associated with clinical and bacteriological responses” value ([1]; guidelines for therapeutic drug monitoring) is given as no less than 400.

With teicoplanin the MIC ([2]; 2.2% of the 46 MRSA strains) was 0.38 µg/mL, the MIC ([2]; 6.5% of the 46 MRSA strains) was 0.5 µg/mL and the MIC ([2]; 13.0% of the 46 MRSA strains) was 1.5 µg/mL. For the same molecule, the MIC ([2]; 34.8% of the 46 MRSA strains) was 1.0 µg/mL, the MIC ([2]; 43.5% of the 46 MRSA strains) was 0.75 µg/mL and the “probability of treatment success” value ([3]; AUC24/MIC ratio of 500 µg·h/mL on day 3) was 0.50. For the same molecule, the “probability of treatment success” value ([3]; AUC24/MIC ratio of 700 µg·h/mL on day 3) was 0.72, the “probability of treatment success” value ([3]; AUC24/MIC ratio of 900 µg·h/mL on day 3) was 0.87 and the “bacteriological response, AUC24/MIC ratios of ≥900 (n=15) versus <900 (n=31)” value ([3]; Kaplan–Meier curve analysis, P<0.05) was “significantly stronger bacteriological responses”. For the same molecule, the “AUC24/MIC ratio required to ensure bacteriological responses” value ([3]; patients with MRSA infections) was no less than 900 µg·h/mL, the “distribution volume of the central compartment” value [4] was 10.4 L and the “transfer rate constant from the central compartment to the peripheral compartment” value [4] was 0.38 h⁻¹. For the same molecule, the “transfer rate constant from the peripheral compartment to the central compartment” value [4] was 0.0485 h⁻¹, the “trough concentrations effective for treating most infections” value [5] was greater than 13 µg/mL and the “log[Cmax, unbound/MIC] threshold for achieving treatment success” value ([5]; day 3 of teicoplanin therapy, ref 14 (Ogawa et al)) was 0.30. The “AUC24 value on the third day” value ([5]; treatment failure group) was 652.9 ± 83.4 µg·h/mL, the “AUC24 value on the third day” value ([5]; treatment success group) was 897.6 ± 71.7 µg·h/mL and the MIC ([6]; ref 12) was no more than 1.0 µg/mL. For the same molecule, the MIC ([6]; ref 13) was less than 2.0 µg/mL.
